Reference: ChEMBL document CHEMBL4190163 (2016)
Calls of active or inactive are those of the source. The rule behind the calls is not given here.

How the values were obtained:
MDA-MB-231 [1] = assay: Cytotoxicity against human MDA-MB-231 cells after 48 hrs by MTS assay; type: functional; settings: MDA-MB-231, 48 h
PC-3 = assay: Cytotoxicity against human PC3 cells after 48 hrs by MTS assay; type: functional; settings: PC-3, 48 h
BT-474 [2] = assay: Cytotoxicity against human BT474 cells after 48 hrs by MTS assay; type: functional; settings: BT-474, 48 h
JIMT-1 = assay: Cytotoxicity against human JIMT1 cells after 48 hrs by MTS assay; type: functional; settings: JIMT-1, 48 h
DU-145 [3] = assay: Cytotoxicity against human DU145 cells after 48 hrs by MTS assay; type: functional; settings: DU-145, 48 h
MIA PaCa-2 [4] = assay: Cytotoxicity against human MIAPaCa2 cells after 48 hrs by MTS assay; type: functional; settings: MIA PaCa-2, 48 h
MIA PaCa-2 [5] = assay: Potency index, ratio of salinomycin CC50 to test compound CC50 for human MIAPaCa2 cells; type: functional
DU-145 [6] = assay: Cytotoxicity against human DU145 cancer stem cell spheroids assessed as reduction in cell viability at 5 to 10 uM after 5 to 6 days by MTS assay; type: functional
DU-145 [7] = assay: Cytotoxicity against human DU145 cancer stem cell spheroids assessed as reduction in cell viability at 5 uM after 5 to 6 days by MTS assay; type: functional
BT-474 [8] = assay: Cytotoxicity against human BT474 cancer stem cell spheroids assessed as reduction in cell viability at 5 to 10 uM after 5 to 6 days by MTS assay; type: functional
BT-474 [9] = assay: Cytotoxicity against human BT474 cancer stem cell spheroids assessed as reduction in cell viability at 5 uM after 5 to 6 days by MTS assay; type: functional
BT-474 [10] = assay: Potency index, ratio of salinomycin CC50 to test compound CC50 for human BT474 cells; type: functional
MDA-MB-231 [11] = assay: Potency index, ratio of salinomycin CC50 to test compound CC50 for human MDA-MB-231 cells; type: functional
DU-145 [12] = assay: Disruption of preformed spheroids in human DU145 cancer stem cells at 5 to 10 uM after 4 days by microscopic analysis; type: functional
DU-145 [13] = assay: Potency index, ratio of salinomycin CC50 to test compound CC50 for human DU145 cells; type: functional
BT-474 [14] = assay: Disruption of preformed spheroids in human BT474 cancer stem cells at 5 to 10 uM after 4 days by microscopic analysis; type: functional
BT-474 [15] = assay: Disruption of preformed spheroids in human BT474 cancer stem cells at 7.5 uM after 3 days by microscopic analysis; type: functional, cell-based
DU-145 [16] = assay: Disruption of preformed spheroids in human DU145 cancer stem cells at 7.5 uM after 3 days by microscopic analysis; type: functional, cell-based
DU-145 [17] = assay: Disruption of preformed spheroids in human DU145 cancer stem cells at 20 uM after 3 days by microscopic analysis; type: functional, cell-based
DU-145 [18] = assay: Cytotoxicity against human DU145 cancer stem cell spheroids assessed as reduction in cell viability up to 20 uM after 3 to 5 days by MTS assay; type: functional, cell-based
BT-474 [19] = assay: Cytotoxicity against human BT474 cancer stem cell spheroids assessed as reduction in cell viability up to 20 uM after 3 to 5 days by MTS assay; type: functional, cell-based
BT-474 [20] = assay: Disruption of preformed spheroids in human BT474 cancer stem cells at 20 uM after 3 days by microscopic analysis; type: functional, cell-based

SMILES	CC50 (MDA-MB-231 [1]) [µM]	CC50 (PC-3) [µM]	CC90 (PC-3) [µM]	CC90 (MDA-MB-231 [1]) [µM]	CC50 (BT-474 [2]) [µM]	CC90 (BT-474 [2]) [µM]	CC50 (JIMT-1) [µM]	CC90 (JIMT-1) [µM]	CC50 (DU-145 [3]) [µM]	CC90 (DU-145 [3]) [µM]	CC50 (MIA PaCa-2 [4]) [µM]	CC90 (MIA PaCa-2 [4]) [µM]	other results
CCCCCCCCCCCCCCCCOC[C@H](CO[C@@H]1O[C@H](CN)[C@@H](O)[C@H](O)[C@H]1N)O[C@@H]1O[C@H](CN)[C@@H](O)[C@H](O)[C@H]1N	> 30	–	–	–	–	–	–	–	–	–	–	–	–
CCCCCCCCCCCCCCCCOC[C@H](CO[C@@H]1O[C@H](CO)[C@@H](O)[C@H](O)[C@H]1N)NC(=O)OC	16	20	29	19	23	29	12.5	15	14	19	18	29	–
CCCCCCCCCCCCCCCCOC[C@@H](CO[C@H]1O[C@H](CN)[C@@H](O)[C@H](O)[C@H]1N)OC	3	3.5	6	4.5	7.5	9.5	3.5	4.9	5.2	7.4	3.5	6.5	Ratio (MIA PaCa-2 [5]): 2; Activity (DU-145 [6]): 100%; Activity (DU-145 [7]): >95%; Activity (BT-474 [8]): 100%; Activity (BT-474 [9]): >95%; Ratio (BT-474 [10]): 2; Ratio (MDA-MB-231 [11]): >6; Activity (DU-145 [12]): 100%; Ratio (DU-145 [13]): >4; Activity (BT-474 [14]): 100%
CCCCCCCCCCCCCCCCOC[C@@H](CO[C@@H]1O[C@H](CO)[C@@H](O)[C@H](O)[C@H]1N)OC	–	13.5	28	–	8	13	9	16	10	15	9	18	–
CC[C@@H](C(=O)[C@@H](C)[C@@H](O)[C@H](C)[C@@H]1O[C@@H]([C@@H](CC)C(=O)O)CC[C@@H]1C)[C@H]1O[C@]2(C=C[C@@H](O)[C@]3(CC[C@@](C)([C@H]4CC[C@](O)(CC)[C@H](C)O4)O3)O2)[C@H](C)C[C@@H]1C [SALINOMYCIN]	> 20	–	–	–	14	–	–	–	> 20	–	6.5	–	Activity (BT-474 [15]): Active; Activity (DU-145 [16]): Active
CCCCCCCCCCCCCCCCOC[C@@H](CO[C@@H]1O[C@H](CN)[C@@H](O)[C@H](O)[C@H]1N1C(=O)c2ccccc2C1=O)OC	20	15	–	–	–	–	–	–	> 30	–	–	–	–
CCCCCCCCCCCCCCCCOCCCO[C@@H]1O[C@H](CN)[C@@H](O)[C@H](O)[C@H]1N	4.5	8	14	7	8.5	17.5	4	6	6	8.5	6.5	13	Activity (DU-145 [6]): 100%; Activity (DU-145 [7]): >95%; Activity (BT-474 [8]): 100%; Activity (BT-474 [9]): >95%; Activity (DU-145 [12]): 100%; Activity (BT-474 [14]): 100%
CCCCCCCCCCCCCCCCOC[C@@H](N)CO[C@@H]1O[C@H](CO)[C@@H](O)[C@H](O)[C@H]1N	6	9	14	9	15.5	28	5.5	7.5	6	9	8.5	14	Activity (DU-145 [6]): 100%; Activity (BT-474 [8]): 100%; Activity (DU-145 [12]): 100%; Activity (BT-474 [14]): 100%
CCCCCCCCCCCCCCCCOC[C@@H](CO[C@@H]1O[C@H](CN)[C@@H](O)[C@H](O)[C@H]1N)OC	5.5	11	14	7	11.5	14	4.2	6.5	6	8.5	7	12	Activity (DU-145 [6]): 100%; Activity (BT-474 [8]): 100%; Activity (DU-145 [12]): 100%; Activity (BT-474 [14]): 100%
CCCCCCCCCCCCCCCCOC[C@H](CN=[N+]=[N-])O[C@@H]1O[C@H](CO)[C@@H](O)[C@H](O)[C@H]1N	11	6	15	15	22	28	9.5	13.5	12.5	18	11.5	18.5	–
CCCCCCCCCCCCCCN	–	–	–	–	–	–	–	–	–	–	–	–	Activity (DU-145 [17]): inactive; Activity (DU-145 [18]): inactive; Activity (BT-474 [19]): inactive; Activity (BT-474 [20]): inactive
CCCCCCCCCCCCCCCCOC[C@H](CO[C@@H]1O[C@H](CO)[C@@H](O)[C@H](O)[C@H]1N)NC(=O)CCCCCCCCCCCCCCC	> 30	–	–	–	–	–	–	–	–	–	–	–	–
O=C(O)CCCc1ccc(N(CCCl)CCCl)cc1 [CHLORAMBUCIL]	> 150	–	–	–	–	–	–	–	–	–	–	–	–
CCCCCCCCCCCCCCCCOC[C@H](CN)O[C@@H]1O[C@H](CO)[C@@H](O)[C@H](O)[C@H]1N	12	9.5	17	17.5	25	> 30	14	19	17.5	25	15	28	–
